# PubChem BioAssay AID1963828 (Molecular Pharmacology Branch, DTP, NCI, 2024)
# Test system: 991263-137-R1-J2-PDC complex spheroid viability
# Test: Anticancer human tumor 991263-137-R1-J2-PDC patient-derived colon adenocarcinoma cell line growth inhibition [POLQ]
# Conditions: for IC50: curve of first compound; for viability, T/C: stronger effect = lower value
# Procedure, shortened: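 Complex spheroid viability model combining PDC tumour cells with endothelial (HUVEC) and MSC stromal cells. Novobiocin, ART-558 or RP6685 were tested singly and in combination with standard and investigational anticancer drugs. Each was titrated in half-log steps from near clinical Cmax, or from 10 microM where Cmax was unknown.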
# 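Also: spheroids exposed to compounds for 7 days before readout.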
# 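For viability, T/C in this document: 100% = DMSO vehicle control viability.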
smiles,measurement,setting,value
COc1ccc([C@@H](O)c2cc(-c3ncnc4cc(N5CCOCC5)ccc34)c(F)cc2Cl)nn1 + COC1C(OC(N)=O)C(O)C(Oc2ccc3c(O)c(NC(=O)c4ccc(O)c(CC=C(C)C)c4)c(=O)oc3c2C)OC1(C)C,IC50,second compound 0.0316 µM,5.41 µM
same,IC50,second compound 0.1 µM,4.12 µM
same,IC50,second compound 0.316 µM,5.53 µM
same,IC50,second compound 1 µM,2.94 µM
same,IC50,second compound 3.16 µM,6.38 µM
same,IC50,second compound 10 µM,6.09 µM
same,"viability, T/C","second compound 0.0316 µM, first compound 0.0316 µM",107%
same,"viability, T/C","second compound 0.0316 µM, first compound 0.1 µM",96.3%
same,"viability, T/C","second compound 0.0316 µM, first compound 0.316 µM",90.8%
same,"viability, T/C","second compound 0.0316 µM, first compound 1 µM",76.2%
same,"viability, T/C","second compound 0.0316 µM, first compound 3.16 µM",71.7%
same,"viability, T/C","second compound 0.0316 µM, first compound 10 µM",31.5%
same,"viability, T/C","second compound 0.1 µM, first compound 0.0316 µM",99.8%
same,"viability, T/C","second compound 0.1 µM, first compound 0.1 µM",98.3%
same,"viability, T/C","second compound 0.1 µM, first compound 0.316 µM",84.6%
same,"viability, T/C","second compound 0.1 µM, first compound 1 µM",91.7%
same,"viability, T/C","second compound 0.1 µM, first compound 3.16 µM",55.6%
same,"viability, T/C","second compound 0.1 µM, first compound 10 µM",30.9%
same,"viability, T/C","second compound 0.316 µM, first compound 0.0316 µM",82.7%
same,"viability, T/C","second compound 0.316 µM, first compound 0.1 µM",107%
same,"viability, T/C","second compound 0.316 µM, first compound 0.316 µM",88.5%
same,"viability, T/C","second compound 0.316 µM, first compound 1 µM",71%
same,"viability, T/C","second compound 0.316 µM, first compound 3.16 µM",70.5%
same,"viability, T/C","second compound 0.316 µM, first compound 10 µM",33%
same,"viability, T/C","second compound 1 µM, first compound 0.0316 µM",95.3%
same,"viability, T/C","second compound 1 µM, first compound 0.1 µM",107%
same,"viability, T/C","second compound 1 µM, first compound 0.316 µM",96.8%
same,"viability, T/C","second compound 1 µM, first compound 1 µM",70.7%
same,"viability, T/C","second compound 1 µM, first compound 3.16 µM",51.9%
same,"viability, T/C","second compound 1 µM, first compound 10 µM",32.6%
same,"viability, T/C","second compound 3.16 µM, first compound 0.0316 µM",94.3%
same,"viability, T/C","second compound 3.16 µM, first compound 0.1 µM",101%
same,"viability, T/C","second compound 3.16 µM, first compound 0.316 µM",96.7%
same,"viability, T/C","second compound 3.16 µM, first compound 1 µM",85.6%
same,"viability, T/C","second compound 3.16 µM, first compound 3.16 µM",79.9%
same,"viability, T/C","second compound 3.16 µM, first compound 10 µM",32.2%
same,"viability, T/C","second compound 10 µM, first compound 0.0316 µM",88.1%
same,"viability, T/C","second compound 10 µM, first compound 0.1 µM",103%
same,"viability, T/C","second compound 10 µM, first compound 0.316 µM",94.8%
same,"viability, T/C","second compound 10 µM, first compound 1 µM",111%
same,"viability, T/C","second compound 10 µM, first compound 3.16 µM",67.1%
same,"viability, T/C","second compound 10 µM, first compound 10 µM",37.1%
